These results are taken from ChEMBL document CHEMBL1201862, “PubChem BioAssay data set” (2004).

Holding throughout (assay): growth of human tumour cells (NCI), 48 h
In assay [1] the test system is ACHN.
Assay [2] has as its system CAKI-1.
Assay [3] has as its system HCT-116.
The subject of assay [4] is HL-60.
The test system of assay [5] is HOP-62.
Assay [6] has as its system HT-29.
The subject of assay [7] is IGROV-1.
The test system of assay [8] is K562.
The test system of assay [9] is M14.
Assay [10] deals with MDA-MB-435.
For assay [11], the system named is MOLT-4.
For assay [12], the system named is NCI-H23.
In assay [13] the test system is OVCAR-4.
In assay [14] the test system is RPMI-8226.
In assay [15] the test system is SF-268.
Assay [16] deals with SF-295.
Assay [17] deals with SK-MEL-5.
Assay [18] concerns SK-OV-3.
Assay [19] relates to UACC-257.
The test system of assay [20] is RXF 393.

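Step 1: Grow cells in 96-well plates. Step 2: Expose to compound for 48 hours at 5 concentrations. Step 3: Interpolate endpoints linearly; if unreached, use highest concentration. GI50 marks 50% less growth.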 The source made the active and inactive calls. Cut-off read from the data, not from the text of the source: active = GI50 up to about 1.1 µM and inactive = higher. Numbered stars: 1 amine (or outer) side, 2 acyl side, 3 side chain; on linkers, the order of the positions; unused ones are H or OH. Bridge positions count the residues as written; N and C are the ends. Square brackets hold non-standard residues; d marks the D form. Peptide text beside a SMILES is read from it. X58 = COc1c(N[*:1])cccc1C(=O)O[C@H](C(=O)[C@H](C)C(=O)[*:2])C(C)C; X57 = CC(C)C[C@H](C(=O)[*:2])C(C)C(=O)C1CCCN1[*:1]; NMeY = CN[C@@H](Cc1ccc(O)cc1)C(=O)O; Lac = C[C@H](O)C(=O)O

In the case of `OC(c1ccccc1)(c1ccccc1)c1nccc2ccccc12`, the GI50 in assay [1] was 37.6 µM (inactive); in assay [2], 20.1 µM (inactive); in assay [3], 27.9 µM (inactive); in [4], 32.3 µM (inactive); in [5], 18.9 µM (inactive); in assay [6], 26.8 µM (inactive). Further, the GI50 in assay [7] was 40 µM (inactive); in assay [8] it was > 10 µM (inactive); in assay [9], 20.8 µM (inactive); in assay [10], 30.8 µM (inactive); in [11] it was 16.7 µM (inactive); in [12], 20.8 µM (inactive). For the same molecule, the GI50 in [13] is 31.6 µM (inactive); in [14], 38.3 µM (inactive); in assay [15], 44.2 µM (inactive); in [16], 15.8 µM (inactive); in assay [17], 14.1 µM (inactive); in assay [18], 22.5 µM (inactive). The GI50 in assay [19] was 31 µM (inactive).

As to `COC(C)C(O)(C(=O)OCC1=CCN2CCC(O)C12)C(C)(C)O` (stereo not given), the GI50 in assay [1], in assay [2], in [3], in assay [4], in assay [6] and in assay [7] was > 100 µM (inactive) in each case. The GI50 in assay [9], in assay [10], in [11], in [12], in assay [13] and in [14] was > 100 µM (inactive) throughout. For the same molecule, the GI50 in assay [15], in assay [16], in assay [17], in assay [18] and in assay [19] was > 100 µM (inactive) in each case.

On to `CC(C)(C)OC/C=C1\C(=O)O[C@H]2C[C@@H](O[Si](C)(C)C(C)(C)C)C[C@@H]12`, for which the GI50 in assay [1] was > 100 µM (inactive); in assay [2], > 100 µM (inactive); in assay [3], 26.4 µM (inactive); in assay [5], 85.3 µM (inactive); in [6], 73.6 µM (inactive); in [7], > 100 µM (inactive). The GI50 in assay [8] was 26.1 µM (inactive); in assay [9], 61.8 µM (inactive); in assay [10], 96.2 µM (inactive); in assay [11] it was 25.1 µM (inactive); in [12], 52.4 µM (inactive); in assay [13], 92.3 µM (inactive). For the same molecule, the GI50 in assay [14] is 46 µM (inactive); in assay [20], 32.2 µM (inactive); in [15], > 100 µM (inactive); in assay [16], 48.6 µM (inactive); in [17], > 100 µM (inactive); in assay [18], > 100 µM (inactive). In addition, the GI50 in assay [19] was 62.4 µM (inactive).

Take `O=[N+]([O-])c1ccc(N2N=C(c3ccc4ccccc4c3O)CC2c2ccc(Cl)cc2)c([N+](=O)[O-])c1` (stereo not given): the GI50 in assay [1] is 37.2 µM (inactive); in assay [2], > 100 µM (inactive); in [3], 28 µM (inactive); in [5], 41.2 µM (inactive); in [6] it was 33 µM (inactive); in assay [7], 21.5 µM (inactive). In addition, the GI50 in assay [8] was 14.5 µM (inactive); in assay [9], 50.4 µM (inactive); in [10], 16.9 µM (inactive); in assay [11], 17 µM (inactive); in [12] it was > 100 µM (inactive); in assay [13] it was 55.1 µM (inactive). The GI50 in [14] is 12.8 µM (inactive); in assay [20], 28.6 µM (inactive); in assay [15] it was 45.7 µM (inactive); in assay [16] it was 34.7 µM (inactive); in assay [17] it was 22.2 µM (inactive); in assay [18], 80.2 µM (inactive). For the same molecule, the GI50 in [19] was 32.1 µM (inactive).

Turning to `C=Cn1c([N+](=O)[O-])cnc1/C=C/c1ccc(C(=O)OCCN2CCOCC2)cc1`, the GI50 in [1], in assay [2], in assay [3], in assay [5], in assay [6] and in assay [7] was > 100 µM (inactive) each time. In addition, the GI50 in [8] is > 100 µM (inactive); in assay [9], > 100 µM (inactive); in [10] it was > 100 µM (inactive); in assay [11], 38 µM (inactive); in assay [12], > 100 µM (inactive); in assay [13] it was > 100 µM (inactive). Besides, the GI50 in [14] was 12 µM (inactive); in [20], > 100 µM (inactive); in [15], > 100 µM (inactive); in assay [16], > 100 µM (inactive); in [17], 51.9 µM (inactive); in assay [18], > 100 µM (inactive). Also, in [19], the GI50 was > 100 µM (inactive).

For the molecule `Cc1ccc(S(=O)(=O)N2CCN3C(=O)c4ccccc4C32c2ccc(F)cc2)cc1` (stereo not given), the GI50 in assay [1] is 95.1 µM (inactive); in assay [2] it was 57.3 µM (inactive); in [3], 42.1 µM (inactive); in assay [5], > 100 µM (inactive); in [6] it was 40.6 µM (inactive); in [7] it was 22.9 µM (inactive). Further, the GI50 in assay [8] was 42.4 µM (inactive); in assay [9], > 100 µM (inactive); in assay [10] it was 32.8 µM (inactive); in assay [11] it was 23.8 µM (inactive); in assay [12] it was 97.7 µM (inactive); in assay [13] it was > 100 µM (inactive). For the same molecule, the GI50 in assay [14] was 23.8 µM (inactive); in assay [20], 65.2 µM (inactive); in assay [15], 98.4 µM (inactive); in assay [16] it was 85.7 µM (inactive); in assay [17], 17.7 µM (inactive); in assay [18], > 100 µM (inactive). Moreover, in assay [19], the GI50 was 56 µM (inactive).

As to `C/C=C1\CN2CCC34c5ccccc5N(C)C35OCC4(C(=O)OC)C1CC25` (stereo not given), the GI50 in assay [1] was 90.4 µM (inactive); in [2], 99.3 µM (inactive); in [3], 36.6 µM (inactive); in assay [4], 15.2 µM (inactive); in assay [5], 65.8 µM (inactive); in [7], 41.6 µM (inactive). In addition, the GI50 was 48.9 µM (inactive) in [8]; 21.4 µM (inactive) in assay [9]; 38.7 µM (inactive) in assay [10]; 45.7 µM (inactive) in assay [11]; 56.9 µM (inactive) in assay [12]; 51.2 µM (inactive) in assay [13]. For the same molecule, the GI50 in assay [14] is 24.7 µM (inactive); in assay [15], > 100 µM (inactive); in [16], 34.4 µM (inactive); in assay [17] it was 18.4 µM (inactive); in [18], > 100 µM (inactive); in assay [19], 32.4 µM (inactive).

`COC1C(O)C(C)OC(O[C@H]2CC[C@@]3(C)C(CC[C@@H]4[C@@H]3CC[C@]3(C)[C@@H](C(C)OC5OC(CO)C(O)C(O)C5O)CC[C@]43O)C2)C1O` (stereo not given in full): the GI50 in assay [1], in [2], in assay [3], in [4], in [5] and in assay [6] was > 25 µM (inactive) each time. In addition, the GI50 in assay [7], in assay [8], in [9], in assay [10], in assay [11] and in assay [12] was > 25 µM (inactive) in each case. Moreover, the GI50 in assay [13], in assay [14], in assay [15], in assay [16], in assay [17] and in [18] was > 25 µM (inactive) each time. Further, the GI50 in assay [19] was > 25 µM (inactive).

As for `Cc1c2cccc-2c(N(C)C)cc2c1[nH]c1ccccc12`, the GI50 in assay [1] is 3.19 µM (inactive); in assay [2] it was 17.5 µM (inactive); in assay [3] it was 3.33 µM (inactive); in [4] it was 2.35 µM (inactive); in assay [5] it was 2.71 µM (inactive); in assay [6] it was 4.81 µM (inactive). In addition, the GI50 was 1.89 µM (inactive) in assay [7]; 5.32 µM (inactive) in assay [9]; 8.36 µM (inactive) in assay [10]; 4.35 µM (inactive) in [11]; 8.93 µM (inactive) in assay [12]; 2.07 µM (inactive) in [14]. Moreover, the GI50 in assay [15] is 5.13 µM (inactive); in [16], 10.4 µM (inactive); in assay [17] it was 5.64 µM (inactive); in assay [18] it was 2.67 µM (inactive); in [19], 13 µM (inactive).

Turning to `COc1ccc(C[C@H]2C(=O)O[C@H](C)[C@H](NC(=O)[C@@H](CC(C)C)C(C)C(=O)C3CCCN3C(=O)[C@H](C)O)C(=O)Nc3cccc(c3OC)C(=O)O[C@@H](C(C)C)C(=O)[C@H](C)C(=O)N[C@@H](CC(C)C)C(=O)N3CCC[C@H]3C(=O)N2C)cc1` (stereo not given in full) (H-[Lac][X57]T[X58]LP[NMeY](Me); ester 3-C), the GI50 was 12.2 µM (inactive) in [1]; > 12.5 µM (inactive) in assay [2]; 6.12 µM (inactive) in assay [3]; > 12.5 µM (inactive) in [5]; 2.79 µM (inactive) in assay [6]; > 12.5 µM (inactive) in [7]. In addition, the GI50 in [8] was 0.372 µM (active); in assay [9], 11.4 µM (inactive); in [10], 4.93 µM (inactive); in assay [11], 1.91 µM (inactive); in [12], > 12.5 µM (inactive); in assay [13], > 12.5 µM (inactive). In addition, the GI50 in [14] was 6.53 µM (inactive); in [20] it was > 12.5 µM (inactive); in [15] it was > 12.5 µM (inactive); in assay [16], > 12.5 µM (inactive); in [17], > 12.5 µM (inactive); in [18], > 12.5 µM (inactive). The GI50 in assay [19] is > 12.5 µM (inactive).
